Results as given in patent US7928143B2, “Method for preventing and/or treating neurodegenerative diseases” (Ono Pharmaceutical Co., Ltd., priority 2003, dated 2011).

Legend:
Assay type in all cases: in vivo, human
[1] = test system: patients with cerebral infarction at the acute phase (within 72 hours after onset of the disease); assay: Clinical test Example 1: randomization test at two doses, efficacy by Rankin Scale and Glasgow Outcome Scale; details: 4 mg/kg/h vs 0.4 mg/kg/h group, 1 h continuous i.v. once a day for 7 days, cases with JSS≦15 before administration, three months after commencement of administration
Experimental: (§1) As a clinical test, a randomization test was carried out on patients with cerebral infarction at the acute phase (within 72 hours after onset of the disease), at two doses under the following conditions. • Object: 97 patients in the acute phase cerebral infarction. • Administration method and dosage: 1 hour of continuous intravenous administration once a day in each group; • (1) (2R)-2-propyloctanoic acid: 0.4 mg/kg/h; • (2) (2R)-2-propyloctanoic acid: 4 mg/kg/h. • Administration period: 7 days • The Number of Cases: • (1) (2R)-2-propyloctanoic acid 0.4 mg/kg/h administered group: 51 patients; • (2) (2R)-2-propyloctanoic acid 4 mg/kg/h administered group: 46 patients. Evaluation Items: Main Evaluation Items <Efficacy Evaluation Items> (1) Rankin Scale (RS)
Evaluation method: Symptoms of patients were scored by classifying them into the following grades of Table 1.
(2) Glasgow Outcome Scale (GOS)
Evaluation method: Symptoms of patients were scored by classifying them into the following grades of Table 2.
(§2) <Safety Evaluation Item> • Frequency of adverse matters and the contents thereof (symptoms, causal relation and the like): • Analysis: Therapeutic effects by continuous intravenous administration of (2R)-2-propyloctanoic acid were evaluated based on the above main evaluation items. • Results: The results are shown below. <Efficacy Evaluation Item>

[2] = test system: patients with cerebral infarction at the acute phase (within 72 hours after onset of the disease); assay: Clinical test Example 1: safety evaluation (frequency of adverse matters and contents); details: i.v. 7 days, causal relation to the test drug was denied
Experimental: as §1, §2

[3] = test system: patients with cerebral infarction at the acute phase (within 24 hours after onset of the disease); assay: Clinical test Example 2: double blind placebo-controlled test, efficacy by modified Rankin Scale; details: 8 mg/kg/h administration group, 1 h continuous i.v. once a day for 7 days; 40 days after commencement of administration; statistically significant vs placebo (32.5%)
Experimental: (§3) As a clinical test, a double blind test was carried out using patients with cerebral infarction at the acute phase (within 24 hours after onset of the disease) under the following conditions by (2R)-2-propyloctanoic acid administration groups (6 varied doses) and a placebo administration group. • Object: 92 patients in the acute phase cerebral infarction. • Administration method and dosage: 1 hour of continuous intravenous administration once a day in each group; • (1) (2R)-2-propyloctanoic acid: 2 mg/kg/h; • (2) (2R)-2-propyloctanoic acid: 4 mg/kg/h; • (3) (2R)-2-propyloctanoic acid: 6 mg/kg/h; • (4) (2R)-2-propyloctanoic acid: 8 mg/kg/h; • (5) (2R)-2-propyloctanoic acid: 10 mg/kg/h; • (6) (2R)-2-propyloctanoic acid: 12 mg/kg/h; • (7) placebo. • Administration period: 7 days • The Number of Cases: • (1) (2R)-2-propyloctanoic acid 2 mg/kg/h administered group: 9 patients; • (2) (2R)-2-propyloctanoic acid 4 mg/kg/h administered group: 8 patients; • (3) (2R)-2-propyloctanoic acid 6 mg/kg/h administered group: 8 patients; • (4) (2R)-2-propyloctanoic acid 8 mg/kg/h administered group: 8 patients; • (5) (2R)-2-propyloctanoic acid 10 mg/kg/h administered group: 8 patients; • (6) (2R)-2-propyloctanoic acid 12 mg/kg/h administered group: 8 patients; • (7) placebo administered group: 43 patients. […]

serum S-100β = assay: Clinical test Example 2: serum S-100β content (SMART S100 ELISA Kit); details: administered groups (2 to 12 mg/kg/h, i.v. 7 days) in comparison with placebo group; particularly remarkable on and after 3 days; FIG. 3
Experimental: as §3

[4] = test system: patients with cerebral infarction at the acute phase (within 24 hours after onset of the disease); assay: Clinical test Example 2: safety evaluation (adverse matters and clinical test values); details: administration group (2 to 12 mg/kg/h, i.v. 7 days)
Experimental: As a clinical test, a double blind test was carried out using patients with cerebral infarction at the acute phase (within 24 hours after onset of the disease) under the following conditions by (2R)-2-propyloctanoic acid administration groups (6 varied doses) and a placebo administration group. • Object: 92 patients in the acute phase cerebral infarction. • Administration method and dosage: 1 hour of continuous intravenous administration once a day in each group; • (1) (2R)-2-propyloctanoic acid: 2 mg/kg/h; • (2) (2R)-2-propyloctanoic acid: 4 mg/kg/h; • (3) (2R)-2-propyloctanoic acid: 6 mg/kg/h; • (4) (2R)-2-propyloctanoic acid: 8 mg/kg/h; • (5) (2R)-2-propyloctanoic acid: 10 mg/kg/h; • (6) (2R)-2-propyloctanoic acid: 12 mg/kg/h; • (7) placebo. • Administration period: 7 days • The Number of Cases: • (1) (2R)-2-propyloctanoic acid 2 mg/kg/h administered group: 9 patients; • (2) (2R)-2-propyloctanoic acid 4 mg/kg/h administered group: 8 patients; • (3) (2R)-2-propyloctanoic acid 6 mg/kg/h administered group: 8 patients; • (4) (2R)-2-propyloctanoic acid 8 mg/kg/h administered group: 8 patients; • (5) (2R)-2-propyloctanoic acid 10 mg/kg/h administered group: 8 patients; • (6) (2R)-2-propyloctanoic acid 12 mg/kg/h administered group: 8 patients; • (7) placebo administered group: 43 patients. Evaluation Items: Main Evaluation Items <Efficacy Evaluation Items> (1) Modified Rankin Scale (mRS)
Adverse Matters and Clinical Test Values
• Analysis: Therapeutic effects by continuous intravenous administration of (2R)-2-propyloctanoic acid was evaluated based on the above main evaluation items. • Results: The results are shown below. <Efficacy Evaluation Item>

`CCCCCC[C@@H](CCC)C(=O)O` [(2R)-2-propyloctanoic acid] was tested, and the “ratio of occupying the category of improvement by RS (Rankin Scale)” value ([1]; FIG. 1) was “statistically significant differences were found”, the “ratio of occupying the category of improvement by GOS (Glasgow Outcome Scale)” value ([1]; FIG. 2) was “statistically significant differences were found” and the cases of death ([2]; 0.4 mg/kg/h administration group) was 3 cases. For the same compound, the cases of death ([2]; 4 mg/kg/h administration group) was 4 cases, the “ratio occupied by a score of 2 or less (category of good improvement) on modified Rankin Scale (mRS)” value [3] was 87.5% and the “serum S-100β content during the administration period” value (serum S-100β) was “tendency of inhibiting increase of the serum S-100β content”. For the same compound, the Serious adverse matters ([4]; causal relation to the test drug was denied, placebo 12 cases) was 10 cases, the “Frequency of the adverse matters (side effects) whose causal relation to the test drug was not denied” value ([4]; placebo 39.5%, no difference) was 42.9% and the “Frequency of the adverse matters” value ([4]; placebo 100%, no difference) was 98%.
